Measured values published in patent US20260022143A1, “Cyclic Peptide Inhibitors of IL-23” (JANSSEN PHARMACEUTICA NV, priority 2022, published 2026).
Where a name gives a salt, the structure may show the parent alone. Starred links: 1 amine or outer side, 2 acyl side, 3 side chain; linkers in the order of their positions; H or OH if unused. Positions of bridges follow the written chain, without caps; N, C: chain ends. Non-standard residues stand in square brackets, D forms with d. Residues, ends and D or L forms follow the SMILES beside them. Groups on a side chain read outwards from the residue. *: point of attachment. Trp(7-(3-AcNH-Ph)) = CC(=O)Nc1cccc(-c2cccc3c(C[C@H](N)C(=O)O)c[nH]c23)c1; X33 = C[N+](C)(C)CCCCc1cn(-c2ccc(C[C@H](N[*:1])C(=O)[*:2])cc2)nn1; Me3N+(CH2)2O(CH2)2O(CH2)2CO = C[N+](C)(C)CCOCCOCCC(=O)*; CH2CH2OCH2CH2OCH2CH2NMe3+ = C[N+](C)(C)CCOCCOCC*; Trp(7-Me) = Cc1cccc2c(C[C@H](N)C(=O)O)c[nH]c12; d(hLys(Me3)) = C[N+](C)(C)CCCCC[C@@H](N)C(=O)O; dLys(Me3) = C[N+](C)(C)CCCC[C@@H](N)C(=O)O; X23 = Cn1nnc(CC[C@H](N[*:1])C(=O)[*:2])n1; Dab(NMeAc) = CC(=O)N(C)CC[C@H](N)C(=O)O; CH2CH2OCH2CH2NMe3+ = C[N+](C)(C)CCOCC*; γGlu = O=C(O)[C@H](CCC(=O)[*:2])N[*:1]; 2Nal = N[C@@H](Cc1ccc2ccccc2c1)C(=O)O; AEF = NCCOc1ccc(C[C@H](N)C(=O)O)cc1; 3Pal = N[C@@H](Cc1cccnc1)C(=O)O; Myristoyl = CCCCCCCCCCCCCC(=O)*; Lys(Me) = CNCCCC[C@H](N)C(=O)O; Pen = CC(C)(S)[C@H](N)C(=O)O; X70 = C[N+](C)(C)CCO/N=C\C*; Thp = NC1(C(=O)O)CCOCC1; X3 = C[N+](C)(C)CCCCC*; AEEA = NCCOCCOCC(=O)O; Me2NCH2CH2 = CN(C)CC*; Tfa = O=C(C(F)(F)F)*; Sar = CNCC(=O)O

assay: Exposed Polar Surface Area (EPSA); assay type: physicochemical; conditions: SFC on Chirex 3014 column; sample 1 mM DMSO stock; read-out: EPSA
Procedure, shortened: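 SFC retention on a Chirex 3014 (S)-valine/(R)-1-(α-naphthyl)ethylamine column, 35 °C, CO2 with MeOH (20 mM ammonium formate) gradient 5–60% at 20%/min, 14 MPa outlet. Retention times converted to EPSA (Å^2) via linear calibration with 8 standards; samples from 1 mM DMSO stock, run in duplicate.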

EPSA	Structure (SMILES)
169 A^2	CC(=O)NCCCC[C@@H]1NC(=O)[C@H](Cc2c[nH]c3c(C)cccc23)NC(=O)[C@H]([C@@H](C)O)NC(=O)[C@H](CC(N)=O)NC(=O)[C@@H](NC(C)=O)C(C)(C)SSC(C)(C)[C@@H](C(=O)N[C@@H](Cc2ccc(-n3cc(CCCC[N+](C)(C)C)nn3)cc2)C(=O)N[C@@H](Cc2ccc3ccccc3c2)C(=O)NC2(C(=O)N[C@@H](CCC(=O)O)C(=O)N[C@@H](CC(N)=O)C(=O)N[C@@H](Cc3cccnc3)C(=O)N(C)CC(N)=O)CCOCC2)NC1=O [compound 442] (Ac-[Pen]NT[Trp(7-Me)]K(Ac)[Pen][X33][2Nal][Thp]EN[3Pal][Sar]-NH2; disulfide 1-6 (inferred))
170 A^2	CCCCCCCCCCCCCC(=O)N[C@@H](CCC(=O)NCCOCCOCC(=O)NCCOCCOCC(=O)NCCCC[C@@H]1NC(=O)[C@@H](NC(=O)[C@@H](CCCCC[N+](C)(C)C)NC(=O)COCCOCCNC(=O)COCCOCCNC(=O)CC[C@H](NC(=O)CCCCCCCCCCCCC)C(=O)O)C(C)(C)SSC(C)(C)[C@@H](C(=O)N[C@@H](Cc2ccc(OCCCCC[N+](C)(C)C)cc2)C(=O)N[C@@H](Cc2ccc3ccccc3c2)C(=O)NC2(C(=O)N[C@@H](CCCCN(C)C(C)=O)C(=O)N[C@@H](CC(N)=O)C(=O)N[C@@H](Cc3cccnc3)C(=O)N(C)CC(=O)N(C)C)CCOCC2)NC(=O)[C@H](CCCCN(C)C(C)=O)NC(=O)[C@H](Cc2c[nH]c3c(C)cccc23)NC(=O)[C@H]([C@@H](C)O)NC1=O)C(=O)O [compound 374, C14gEPEG2PEG2CO-hk(Me)3-Pen(3)-K(PEG2PEG2gEC14)-T-7MeW-K(NMeAc)-Pen(3)-TMAPF-2Nal-THP-K(NMeAc)-N-3Pya-Sar-CON(Me)2] ({Myristoyl-γGlu-AEEA-AEEA}-[d(hLys(Me3))][Pen]K([AEEA-AEEA-γGlu-Myristoyl])T[Trp(7-Me)][Lys(Me)](Ac)[Pen]Y(X3)[2Nal][Thp][Lys(Me)](Ac)N[3Pal][Sar]-NMe2; disulfide 2-7)
161 A^2	CC(=O)NCCCC[C@@H]1NC(=O)[C@H](Cc2c[nH]c3c(C)cccc23)NC(=O)[C@H]([C@@H](C)O)NC(=O)[C@H](CC(N)=O)NC(=O)[C@@H](NC(=O)C(F)(F)F)C(C)(C)SSC(C)(C)[C@@H](C(=O)N[C@@H](Cc2ccc(OCCN)cc2)C(=O)N[C@@H](Cc2ccc3ccccc3c2)C(=O)NC2(C(=O)N[C@@H](CCc3nnn(C)n3)C(=O)N[C@@H](CC(N)=O)C(=O)N[C@@H](Cc3cccnc3)C(=O)N(C)CC(N)=O)CCOCC2)NC1=O [compound 76] (Tfa-[Pen]NT[Trp(7-Me)]K(Ac)[Pen][AEF][2Nal][Thp][X23]N[3Pal][Sar]-NH2; disulfide 1-6)
158 A^2	CC(=O)NCCCC[C@@H]1NC(=O)[C@H](Cc2c[nH]c3c(C)cccc23)NC(=O)[C@H]([C@@H](C)O)NC(=O)[C@H](CC(N)=O)NC(=O)[C@@H](NC(=O)CCOCCOCC[N+](C)(C)C)C(C)(C)SSC(C)(C)[C@@H](C(=O)N[C@@H](Cc2ccc(OCCCCC[N+](C)(C)C)cc2)C(=O)N[C@@H](Cc2ccc3ccccc3c2)C(=O)NC2(C(=O)N[C@@H](C)C(=O)N[C@@H](CC(N)=O)C(=O)N[C@@H](Cc3cccnc3)C(=O)N(C)CC(=O)N(C)C)CCOCC2)NC1=O [compound 317, cPEG3aCO-Pen(3)-N-T-7MeW-K(Ac)-Pen(3)-TMAPF-2Nal-THP-A-N-3Pya-Sar-CON(Me)2] ({Me3N+(CH2)2O(CH2)2O(CH2)2CO}-[Pen]NT[Trp(7-Me)]K(Ac)[Pen]Y(X3)[2Nal][Thp]AN[3Pal][Sar]-NMe2; disulfide 1-6)
168 A^2	CCCCCCCCCCCCCC(=O)N[C@@H](CCC(=O)NCCOCCOCC(=O)NCCOCCOCC(=O)NCCCC[C@@H]1NC(=O)[C@@H](NC(=O)CCOCCOCC[N+](C)(C)C)C(C)(C)SSC(C)(C)[C@@H](C(=O)N[C@@H](Cc2ccc(OCCCCC[N+](C)(C)C)cc2)C(=O)N[C@@H](Cc2ccc3ccccc3c2)C(=O)NC2(C(=O)N[C@@H](CCCCNC(=O)COCCOCCNC(=O)COCCOCCNC(=O)CC[C@H](NC(=O)CCCCCCCCCCCCC)C(=O)O)C(=O)N[C@@H](CC(N)=O)C(=O)N[C@@H](Cc3cccnc3)C(=O)N(C)CC(=O)N(C)C)CCOCC2)NC(=O)[C@H](CCCCN(C)C(C)=O)NC(=O)[C@H](Cc2c[nH]c3c(C)cccc23)NC(=O)[C@H]([C@@H](C)O)NC1=O)C(=O)O [compound 398, cPEG3aCO-Pen(3)-K(PEG2PEG2gEC14)-T-7MeW-K(NMeAc)-Pen(3)-TMAPF-2Nal-THP-K(PEG2PEG2gEC14)-N-3Pya-Sar-CON(Me)2] ({Me3N+(CH2)2O(CH2)2O(CH2)2CO}-[Pen]K([AEEA-AEEA-γGlu-Myristoyl])T[Trp(7-Me)][Lys(Me)](Ac)[Pen]Y(X3)[2Nal][Thp]K([AEEA-AEEA-γGlu-Myristoyl])N[3Pal][Sar]-NMe2; disulfide 1-6)
150 A^2	CC(=O)N[C@@H]1C(=O)N[C@@H](COCCOCC[N+](C)(C)C)C(=O)N[C@@H]([C@@H](C)O)C(=O)N[C@@H](Cc2c[nH]c3c(C)cccc23)C(=O)N[C@@H](CCCCN(C)C(C)=O)C(=O)N[C@H](C(=O)N[C@@H](Cc2ccc(OCCOCCOCC[N+](C)(C)C)cc2)C(=O)N[C@@H](Cc2ccc3ccccc3c2)C(=O)NC2(C(=O)N[C@@H](CCCCN(C)C(C)=O)C(=O)N[C@@H](CC(N)=O)C(=O)N[C@@H](Cc3cccnc3)C(=O)N(C)CC(=O)N(C)C)CCOCC2)C(C)(C)SSC1(C)C [compound 365] (Ac-[Pen]S(CH2CH2OCH2CH2NMe3+)T[Trp(7-Me)][Lys(Me)](Ac)[Pen]Y(CH2CH2OCH2CH2OCH2CH2NMe3+)[2Nal][Thp][Lys(Me)](Ac)N[3Pal][Sar]-NMe2; disulfide 1-6)
153 A^2	CC(=O)N(C)CCCC[C@@H]1NC(=O)[C@H](Cc2c[nH]c3c(C)cccc23)NC(=O)[C@H]([C@@H](C)O)NC(=O)[C@H](CC(=O)N(C)C)NC(=O)[C@@H](NC(=O)CCOCCOCC[N+](C)(C)C)C(C)(C)SSC(C)(C)[C@@H](C(=O)N[C@@H](Cc2ccc(OCCN(C)C)cc2)C(=O)N[C@@H](Cc2ccc3ccccc3c2)C(=O)NC2(C(=O)N[C@@H](CCCCN(C)C(C)=O)C(=O)N[C@@H](CC(N)=O)C(=O)N[C@@H](Cc3cccnc3)C(=O)N(C)CC(=O)N(C)C)CCOCC2)NC1=O [compound 321, cPEG3aCO-Pen(3)-N(N(Me)2)-T-7MeW-K(NMeAc)-Pen(3)-AEF(N(Me)2)-2Nal-THP-K(NMeAc)-N-3Pya-Sar-CON(Me)2] ({Me3N+(CH2)2O(CH2)2O(CH2)2CO}-[Pen]D(NMe2)T[Trp(7-Me)][Lys(Me)](Ac)[Pen]Y(Me2NCH2CH2)[2Nal][Thp][Lys(Me)](Ac)N[3Pal][Sar]-NMe2; disulfide 1-6)
139 A^2	CC(=O)N(C)CCCC[C@@H]1NC(=O)[C@H](Cc2c[nH]c3c(C)cccc23)NC(=O)[C@H]([C@@H](C)O)NC(=O)[C@H](CC(=O)N(C)C)NC(=O)[C@@H](NC(=O)CCOCCOCC[N+](C)(C)C)C(C)(C)SSC(C)(C)[C@@H](C(=O)N[C@@H](Cc2ccc(OCCOCCOCC[N+](C)(C)C)cc2)C(=O)N[C@@H](Cc2ccc3ccccc3c2)C(=O)NC2(C(=O)N[C@@H](CCN(C)C(C)=O)C(=O)N[C@@H](CC(N)=O)C(=O)N[C@@H](Cc3cccnc3)C(=O)N(C)CC(=O)N(C)C)CCOCC2)NC1=O [compound 209, cPEG3aCO-Pen(3)-N(N(Me)2)-T-7MeW-K(NMeAc)-Pen(3)-APEG3F-2Nal-THP-Dab(NMeAc)-N-3Pya-Sar-CON(Me)2] ({Me3N+(CH2)2O(CH2)2O(CH2)2CO}-[Pen]D(NMe2)T[Trp(7-Me)][Lys(Me)](Ac)[Pen]Y(CH2CH2OCH2CH2OCH2CH2NMe3+)[2Nal][Thp][Dab(NMeAc)]N[3Pal][Sar]-NMe2; disulfide 1-6)
176 A^2	CC(=O)NCCCC[C@@H]1NC(=O)[C@H](Cc2c[nH]c3c(-c4cccc(NC(C)=O)c4)cccc23)NC(=O)[C@H]([C@@H](C)O)NC(=O)[C@H](CC(N)=O)NC(=O)[C@@H](NC(=O)[C@@H](CCCC[N+](C)(C)C)NC(C)=O)C(C)(C)SSC(C)(C)[C@@H](C(=O)N[C@@H](Cc2ccc(OCCN)cc2)C(=O)N[C@@H](Cc2ccc3ccccc3c2)C(=O)NC2(C(=O)N[C@@H](CCCCNC(C)=O)C(=O)N[C@@H](CC(N)=O)C(=O)N[C@@H](Cc3cccnc3)C(=O)N(C)CC(N)=O)CCOCC2)NC1=O [compound 449] (Ac-[dLys(Me3)][Pen]NT[Trp(7-(3-AcNH-Ph))]K(Ac)[Pen][AEF][2Nal][Thp]K(Ac)N[3Pal][Sar]-NH2; disulfide 2-7)
153 A^2	CC(=O)N(C)CCCC[C@@H]1NC(=O)[C@H](Cc2c[nH]c3c(C)cccc23)NC(=O)[C@H]([C@@H](C)O)NC(=O)[C@H](CC(=O)N(C)C)NC(=O)[C@@H](NC(=O)CCOCCOCC[N+](C)(C)C)C(C)(C)SSC(C)(C)[C@@H](C(=O)N[C@@H](Cc2ccc(OC/C=N\OCC[N+](C)(C)C)cc2)C(=O)N[C@@H](Cc2ccc3ccccc3c2)C(=O)NC2(C(=O)N[C@@H](CCCCN(C)C(C)=O)C(=O)N[C@@H](CC(N)=O)C(=O)N[C@@H](Cc3cccnc3)C(=O)N(C)CC(=O)N(C)C)CCOCC2)NC1=O [compound 306, cPEG3aCO-Pen(3)-N(N(Me)2)-T-7MeW-K(NMeAc)-Pen(3)-Y(OZOXlMECh)-2Nal-THP-K(NMeAc)-N-3Pya-Sar-CON(Me)2] ({Me3N+(CH2)2O(CH2)2O(CH2)2CO}-[Pen]D(NMe2)T[Trp(7-Me)][Lys(Me)](Ac)[Pen]Y(X70)[2Nal][Thp][Lys(Me)](Ac)N[3Pal][Sar]-NMe2; disulfide 1-6)
154 A^2	COCCOCCOCCOCCOCCOCCNCCOc1ccc(C[C@H](NC(=O)[C@H]2NC(=O)[C@H](CCCCNC(C)=O)NC(=O)[C@H](Cc3c[nH]c4c(C)cccc34)NC(=O)[C@H]([C@@H](C)O)NC(=O)[C@H](CC(N)=O)NC(=O)[C@@H](NC(C)=O)C(C)(C)SSC2(C)C)C(=O)N[C@@H](Cc2ccc3ccccc3c2)C(=O)NC2(C(=O)N[C@@H](CCCCNC(C)=O)C(=O)N[C@@H](CC(N)=O)C(=O)N[C@@H](Cc3cccnc3)C(=O)N(C)CC(N)=O)CCOCC2)cc1 [compound 65]
